1 molecule from patent publication US20040009904A1, “APL immunoreactive peptides, conjugates thereof and methods of treatment for aPL antibody-mediated pathologies” (priority 1995, published 2004) can be followed below.

pKi: −log10 of the molar value. Bridge positions count the residues as written; N and C are the ends. Peptide text beside a SMILES is read from it.

Experiment [1] has as its target ACA-6701. As to the kind of experiment: Competitive fluorescence polarization assay (cFP). The format is binding, human. The method, then: The above described dbFP assay provides binding constants for FITC-labeled peptides and requires on the order of 0.5 mg of purified antibody. The cFP assay provides binding constants for peptides that lack the FITC group and it consumes less antibody, on the order of 10 μg. The cFP assay is modified from that reported in PanVera Applications Guide (1994) PanVera Corporation such that it consumes 50-fold less antibody. Briefly, antibody (ACA 6701) is mixed with trace FITC labeled peptide (CB2*-F) and enough time is allowed for equilibrium to be reached. This was 1 hour for ACA 6701 and CB2*-F. Increasing concentrations of the unlabeled peptide being tested (CB2* or 3B10) are then added to the tube. After each addition, sufficient time, approximately 15 minutes, is allowed for equilibrium to be reached and the mP value was read. […] This Δ(mP) value should be 20 or more mP units to insure reliable results.
As unlabeled (no FITC) peptide (I) is added to inhibit F from binding to R, Y decreases from its maximum value of PH′ to a plateau of PL which should agree with that in Equation 1. These titrations are shown in FIGS. 26 and 27 for displacement of CB2*-F from ACA-6701 by CB2* and 3B10, respectively. The equation describing this titration was derived and is: [formula]
where PL is the same as in Equation 1. […]
(In general: Fluorescence polarisation rises when a labelled molecule tumbles more slowly, as on binding a larger partner.)

Experiment [2] relates to ACA-6701. As to the kind of experiment: Competitive binding peptide ACA ELISA, cardiolipin/β2-GPI-coated plates. Also noted: species or system human. As to conditions: peptide 1 mg/mL, affinity purified antibody. Put shortly: (§1)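 Read-out: A550 from alkaline phosphatase anti-human IgG after 21 min PMPP development. IC50 = peptide amount giving half-maximal absorbance, i.e. 50% inhibition of aPL binding to CL/β2-GPI plates. Peptide–antibody mixtures incubated 1 h RT on plates; β2-GPI from IgG-depleted human serum.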
Background: An ELISA detects its analyte on a solid surface through an enzyme-linked reagent.

For a further experiment, the system named is ACA-6626. The experiment is described as above. Particulars: peptide 1 mg/mL, affinity purified antibody. Details: species or system human. Put shortly:
as §1

The next experiment concerns ACA-6903. Described as above. Details: species or system human. As to conditions: peptide 1 mg/mL, affinity purified antibody. Summed up: as §1
The subject of another experiment is ACA-7004. The description is as above. Details: species or system human. As to conditions: peptide 1 mg/mL, affinity purified antibody. Summed up: as §1
The subject of another experiment is ACA-6638. Described as above. As to conditions: peptide 1 mg/mL, affinity purified antibody. Details: species or system human. Summed up: as §1
The test system of a further experiment is ACA-7005. The description is as above. Details: species or system human. As to conditions: peptide 1 mg/mL, affinity purified antibody. Summed up:
as §1

Another experiment deals with ACA-6644. The experiment is described as above. Also noted: species or system human. As to conditions: peptide 1 mg/mL, affinity purified antibody. Put shortly: as §1
The subject of the next experiment is ACA-6641. The experiment is described as above. Particulars: peptide 1 mg/mL, affinity purified antibody. Also noted: species or system human. Put shortly:
as §1

`CC(C)C[C@@H]1NC(=O)[C@H](CC(C)C)NC(=O)[C@H](CC(C)C)NC(=O)[C@@H](NC(=O)[C@@H]2CCCN2C(=O)CNC(=O)[C@H](C)N)CSSC[C@@H](C(=O)N2CCC[C@H]2C(=O)NCC(=O)O)NC(=O)[C@H](CCCNC(=N)N)NC(=O)[C@H](CC(=O)O)NC(=O)[C@@H]2CCCN2C(=O)[C@H](C)NC1=O` [3B10, AGPCLLLAPDRCPG] (H-AGPCLLLAPDRCPG-OH; disulfide 4-12): on ACA-6701 [1] (cFP, displacement of CB2*-F from ACA-6701), the pKi (in general, the Ki on a negative log10 scale, so that one unit is a factor of ten) is 6.50. Also, in the experiment on ACA-6701 [1] (versus CB2*), the “binding to ACA-6701 less than binding of CB2*” value was found to be 9 fold. For the same molecule, in the experiment with ACA-6701 [2], the “Percent Inhibition of AffACA by Peptide Monomers, 6701” value is reported as 51%. The “Percent Inhibition of AffACA by Peptide Monomers, 6626” value in the experiment with ACA-6626 is 76%. The “Percent Inhibition of AffACA by Peptide Monomers, 6903” value in the experiment with ACA-6903 was 69%. Moreover, the “Percent Inhibition of AffACA by Peptide Monomers, 7004” value in the experiment with ACA-7004 turned out to be 87%. For the same molecule, the “Percent Inhibition of AffACA by Peptide Monomers, 6638” value with ACA-6638 is reported as 87%. For the same molecule, the “Percent Inhibition of AffACA by Peptide Monomers, 7005” value in the experiment with ACA-7005 was found to be 47%. Moreover, the “Percent Inhibition of AffACA by Peptide Monomers, 6644” value in the experiment on ACA-6644 is recorded as 55%. Besides, the “Percent Inhibition of AffACA by Peptide Monomers, 6641” value in the experiment on ACA-6641 was 52%.
